What is called IC50 is the concentration at which inhibition is half-maximal.

Here are results for 15 compounds from patent publication US20250263753A1, “BRIDGED CYCLE-BASED INHIBITORS OF DNA-DEPENDENT PROTEIN KINASE AND COMPOSITIONS AND APPLICATION IN GENE EDITING” (Juno Therapeutics, Inc., priority 2023, published 2025).

Where two headings read alike, the source gives them in different places.

One experiment concerns the target DNA-PK (Homo sapiens (Human), UniProt P78527). The experiment in a line: DNA-PK biochemical assay (Reaction Biology HotSpot kinase assay, 10 μM ATP). Put shortly:
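Radiometric 33P-ATP kinase reaction in 20 mM Hepes pH 7.5, 10 mM MgCl2, 1 mM EGTA, 2 mM DTT, 1% DMSO. Compound preincubated with kinase and substrate 20 min at room temperature, then reaction run 2 h at room temperature after ATP addition. Activity read by P81 filter binding.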

The target in experiment [1] is PI3Kδ (His-PIK3CD/PIK3R1, p110 delta/p85 alpha) (Homo sapiens (Human), UniProt O00329). Nature of the experiment: PI3Kδ biochemical assay (HTRF/FRET probe). The experiment is classed as binding. On the procedure:
Phosphoinositide 3-kinase (PI3K) Biochemical Assay: A solution was prepared containing 0.2 nM Anti-HIS-Terbium (Cisbio, 64CUSTAZU), 40 nM designed-probe and 1.0 nM His-PIK3CD/PIK3R1 (p110 delta/p85 alpha) in FRET Buffer (20 mM HEPES, 10 mM MgCl2, 0.015% Brij-35, 4 mM DTT, 0.05 mg/mL BSA).

The next experiment has as its target PI3Kβ (Homo sapiens (Human), UniProt P42338). The experiment in a line: PI3Kβ biochemical assay (Reaction Biology ADP-Glo). How it is done: Phosphoinositide 3-kinase R (PI3KP) Biochemical Assay using Reaction Biology's ADP-Glo Assay Platform:
Step 1: Lipid kinases: Reaction Biology Corporation (RBC) currently offers lipid kinases in ADP-Glo format
Step 2: Assay Description Assay principle: The kinase reactions utilize ATP and produce ADP as a byproduct. The ADP production is quantified by ADP-Glo luminescence detection. This is a 3-step reaction: First, the kinase reaction with lipid substrate is carried out in the presence of ATP, and the reaction is quenched and depleted remaining ATP with ADP-Glo™ reagent, and then finally ADP is converted to ATP which is measured using a luciferase/luciferin reaction.
Step 3: Assay Procedure: 1. Prepare kinase in freshly prepared Reaction Buffer, kinase without substrate is delivered to background wells; 2. Deliver substrate into the kinase solution and gently mix, deliver to assay wells; 3. Deliver compounds in 100% DMSO into the kinase reaction mixture by Acoustic technology (Echo550; nanoliter range), incubate for 20 min at room temperature; 4. Deliver ATP into the reaction mixture to initiate the reaction; 5. Incubate for 60 min at 30° C.; 6. Quench the reaction with ADP-Glo reagent and incubate for 40 min; 7. Add Detection Mixture and incubate for 30 min; 8. Measure luminescence.
Step 4: Data Analysis: The luminescence is converted into M ADP production based on ADP standard curves. The nonlinear regression to obtain the standard curve and IC50 values are performed using Graphpad Prism software.

Experiment [2] deals with PI3Kα (His-PIK3CA/PIK3R1, p110 alpha/p85 alpha) (Homo sapiens (Human), UniProt P42336). The experiment in a line: PI3Kα biochemical assay (HTRF/FRET probe). The class given is binding. On the procedure: Phosphoinositide 3-kinase α (PI3Kα) Biochemical Assay: A solution was prepared containing 0.2 nM Anti-HIS-Terbium (Cisbio, 64CUSTAZU), 3.7 nM designed-probe and 1.0 nM His-PIK3CA/PIK3R1 (p110 alpha/p85 alpha) in FRET Buffer (20 mM HEPES, 10 mM MgCl2, 0.015% Brij-35, 4 mM DTT, 0.05 mg/mL BSA).
On the technique in general: Time-resolved FRET reads energy transfer from a long-lived donor to a nearby acceptor.

The target in a further experiment is ATM (Homo sapiens (Human), UniProt Q13315). The experiment in a line: ATM biochemical assay (Reaction Biology HTRF kinase assay, 10 μM ATP). The procedure, abridged:
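HTRF kinase assay with N-terminal GST-tagged human p53 (aa2-393) substrate, 10 μM ATP, in 50 mM Hepes pH 7.5, 10 mM MnCl2, 1% DMSO. Enzyme preincubated with compound 30 min, reaction 2 h at room temperature. pS15 phosphorylation read by Eu-cryptate anti-p53-pS15/anti-GST-d2 HTRF (615/665 nm).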

Setting [3] is: read-out: DNA-PK HotSpot 10 μM ATP IC50, numeric value.
[4] abbreviates: read-out: ATM HTRF 10 μM ATP IC50, numeric value.
The mark [5] stands for this setting: read-out: DNA-PK HotSpot 10 μM ATP IC50, class symbol.
Where [6] appears, read: read-out: ATM HTRF 10 μM ATP IC50, class symbol.

ATM, sequence (Q13315 whole entry, the tested form may be a part): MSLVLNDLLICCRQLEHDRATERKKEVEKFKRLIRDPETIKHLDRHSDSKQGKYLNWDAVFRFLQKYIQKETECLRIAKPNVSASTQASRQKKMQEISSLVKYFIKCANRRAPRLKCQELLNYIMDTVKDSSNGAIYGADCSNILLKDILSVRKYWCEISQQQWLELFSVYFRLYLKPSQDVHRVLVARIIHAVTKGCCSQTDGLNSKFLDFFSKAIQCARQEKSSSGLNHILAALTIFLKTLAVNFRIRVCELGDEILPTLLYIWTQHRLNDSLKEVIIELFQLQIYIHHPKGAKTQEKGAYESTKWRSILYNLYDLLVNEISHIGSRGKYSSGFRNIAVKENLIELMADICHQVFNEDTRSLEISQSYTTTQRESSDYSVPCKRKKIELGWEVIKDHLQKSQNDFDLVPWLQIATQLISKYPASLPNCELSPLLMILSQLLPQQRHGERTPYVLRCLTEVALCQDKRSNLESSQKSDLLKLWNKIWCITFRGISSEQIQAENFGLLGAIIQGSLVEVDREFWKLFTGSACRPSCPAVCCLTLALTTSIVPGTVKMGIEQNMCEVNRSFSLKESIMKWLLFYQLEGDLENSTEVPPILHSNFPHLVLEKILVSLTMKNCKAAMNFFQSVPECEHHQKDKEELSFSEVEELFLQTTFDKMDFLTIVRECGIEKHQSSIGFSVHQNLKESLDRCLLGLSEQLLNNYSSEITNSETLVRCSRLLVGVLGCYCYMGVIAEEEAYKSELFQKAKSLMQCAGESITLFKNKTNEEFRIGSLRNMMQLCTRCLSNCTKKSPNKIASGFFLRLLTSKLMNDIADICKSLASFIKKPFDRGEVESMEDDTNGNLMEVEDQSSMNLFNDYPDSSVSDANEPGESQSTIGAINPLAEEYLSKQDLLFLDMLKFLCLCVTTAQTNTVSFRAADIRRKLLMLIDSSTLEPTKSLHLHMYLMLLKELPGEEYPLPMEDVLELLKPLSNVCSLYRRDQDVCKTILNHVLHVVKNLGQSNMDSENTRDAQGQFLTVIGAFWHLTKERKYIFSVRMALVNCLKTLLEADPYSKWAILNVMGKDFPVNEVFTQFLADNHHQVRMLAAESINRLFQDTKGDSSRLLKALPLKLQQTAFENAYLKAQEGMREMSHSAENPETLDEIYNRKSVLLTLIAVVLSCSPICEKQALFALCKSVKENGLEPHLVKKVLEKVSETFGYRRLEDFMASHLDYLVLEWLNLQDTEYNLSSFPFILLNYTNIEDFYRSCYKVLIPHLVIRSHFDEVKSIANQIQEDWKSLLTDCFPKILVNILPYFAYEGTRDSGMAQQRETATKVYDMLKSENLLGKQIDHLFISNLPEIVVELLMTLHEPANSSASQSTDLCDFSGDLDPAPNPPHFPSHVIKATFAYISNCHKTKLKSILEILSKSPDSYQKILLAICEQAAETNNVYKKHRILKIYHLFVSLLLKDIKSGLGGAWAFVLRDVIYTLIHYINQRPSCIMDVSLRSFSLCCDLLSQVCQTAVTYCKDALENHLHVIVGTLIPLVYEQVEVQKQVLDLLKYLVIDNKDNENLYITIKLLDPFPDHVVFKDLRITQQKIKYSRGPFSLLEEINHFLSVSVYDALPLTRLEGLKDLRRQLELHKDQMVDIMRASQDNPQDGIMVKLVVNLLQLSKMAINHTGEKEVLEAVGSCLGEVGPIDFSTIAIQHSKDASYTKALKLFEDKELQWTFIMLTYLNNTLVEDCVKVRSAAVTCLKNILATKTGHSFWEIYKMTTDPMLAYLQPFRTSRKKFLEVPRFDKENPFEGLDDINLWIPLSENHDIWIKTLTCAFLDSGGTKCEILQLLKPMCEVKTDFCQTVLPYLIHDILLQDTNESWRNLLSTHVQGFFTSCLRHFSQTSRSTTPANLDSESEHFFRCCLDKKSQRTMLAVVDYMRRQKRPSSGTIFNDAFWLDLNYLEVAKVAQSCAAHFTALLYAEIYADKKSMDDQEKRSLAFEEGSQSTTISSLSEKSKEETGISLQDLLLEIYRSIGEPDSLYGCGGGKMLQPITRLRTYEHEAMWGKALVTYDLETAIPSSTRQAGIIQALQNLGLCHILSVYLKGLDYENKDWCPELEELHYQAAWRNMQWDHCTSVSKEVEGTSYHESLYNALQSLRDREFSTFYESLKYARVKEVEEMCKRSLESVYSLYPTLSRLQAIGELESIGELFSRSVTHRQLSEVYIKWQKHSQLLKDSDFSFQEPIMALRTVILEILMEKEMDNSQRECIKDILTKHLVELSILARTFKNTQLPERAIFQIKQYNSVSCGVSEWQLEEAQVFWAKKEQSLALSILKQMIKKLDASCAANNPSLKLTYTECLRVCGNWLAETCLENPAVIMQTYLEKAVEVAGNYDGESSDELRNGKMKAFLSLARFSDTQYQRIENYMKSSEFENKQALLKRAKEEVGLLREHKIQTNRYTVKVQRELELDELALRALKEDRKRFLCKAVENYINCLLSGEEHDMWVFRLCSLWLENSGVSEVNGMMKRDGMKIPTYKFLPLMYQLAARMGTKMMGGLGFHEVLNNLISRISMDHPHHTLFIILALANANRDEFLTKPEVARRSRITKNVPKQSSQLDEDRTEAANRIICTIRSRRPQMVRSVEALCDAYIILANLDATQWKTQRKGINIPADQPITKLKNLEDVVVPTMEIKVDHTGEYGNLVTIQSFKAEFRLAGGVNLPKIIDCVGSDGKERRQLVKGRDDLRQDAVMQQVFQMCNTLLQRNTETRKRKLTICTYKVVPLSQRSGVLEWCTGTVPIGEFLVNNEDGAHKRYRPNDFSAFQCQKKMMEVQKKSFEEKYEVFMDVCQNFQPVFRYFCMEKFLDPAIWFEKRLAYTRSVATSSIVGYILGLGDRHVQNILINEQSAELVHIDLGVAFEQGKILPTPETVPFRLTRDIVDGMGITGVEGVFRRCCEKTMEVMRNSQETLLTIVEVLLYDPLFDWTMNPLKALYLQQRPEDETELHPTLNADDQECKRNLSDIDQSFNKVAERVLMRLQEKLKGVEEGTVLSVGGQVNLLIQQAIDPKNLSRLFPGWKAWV
PI3Kα (His-PIK3CA/PIK3R1, p110 alpha/p85 alpha), sequence (P42336 whole entry, species assumed): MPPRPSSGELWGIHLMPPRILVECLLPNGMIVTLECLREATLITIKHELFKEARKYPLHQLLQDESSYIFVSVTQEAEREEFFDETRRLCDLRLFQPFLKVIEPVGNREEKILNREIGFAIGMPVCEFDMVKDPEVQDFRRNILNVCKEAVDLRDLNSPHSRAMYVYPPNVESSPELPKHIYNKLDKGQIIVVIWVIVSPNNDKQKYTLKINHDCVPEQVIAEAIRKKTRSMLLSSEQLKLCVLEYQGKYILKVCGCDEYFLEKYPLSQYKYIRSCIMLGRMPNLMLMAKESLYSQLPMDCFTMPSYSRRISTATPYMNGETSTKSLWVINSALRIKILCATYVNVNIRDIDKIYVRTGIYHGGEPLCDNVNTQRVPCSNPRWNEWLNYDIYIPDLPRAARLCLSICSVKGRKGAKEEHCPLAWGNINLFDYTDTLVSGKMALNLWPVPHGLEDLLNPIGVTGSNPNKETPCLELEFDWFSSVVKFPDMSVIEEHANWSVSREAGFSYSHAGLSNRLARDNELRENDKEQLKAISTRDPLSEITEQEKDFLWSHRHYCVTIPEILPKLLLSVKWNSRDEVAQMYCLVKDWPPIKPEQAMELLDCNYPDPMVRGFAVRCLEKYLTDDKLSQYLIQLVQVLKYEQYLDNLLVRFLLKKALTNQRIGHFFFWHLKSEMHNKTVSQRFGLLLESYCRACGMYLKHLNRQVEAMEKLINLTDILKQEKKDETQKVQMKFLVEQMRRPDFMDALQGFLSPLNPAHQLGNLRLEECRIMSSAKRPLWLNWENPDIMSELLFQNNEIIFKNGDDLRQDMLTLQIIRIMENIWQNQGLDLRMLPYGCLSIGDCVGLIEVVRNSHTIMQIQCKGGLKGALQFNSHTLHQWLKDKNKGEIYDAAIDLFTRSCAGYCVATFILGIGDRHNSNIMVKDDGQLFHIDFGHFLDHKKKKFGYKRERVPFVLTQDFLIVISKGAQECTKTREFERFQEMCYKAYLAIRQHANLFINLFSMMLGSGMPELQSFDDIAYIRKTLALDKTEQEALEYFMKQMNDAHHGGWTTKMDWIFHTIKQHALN
PI3Kα (His-PIK3CA/PIK3R1, p110 alpha/p85 alpha), sequence (P27986 whole entry partner, species assumed): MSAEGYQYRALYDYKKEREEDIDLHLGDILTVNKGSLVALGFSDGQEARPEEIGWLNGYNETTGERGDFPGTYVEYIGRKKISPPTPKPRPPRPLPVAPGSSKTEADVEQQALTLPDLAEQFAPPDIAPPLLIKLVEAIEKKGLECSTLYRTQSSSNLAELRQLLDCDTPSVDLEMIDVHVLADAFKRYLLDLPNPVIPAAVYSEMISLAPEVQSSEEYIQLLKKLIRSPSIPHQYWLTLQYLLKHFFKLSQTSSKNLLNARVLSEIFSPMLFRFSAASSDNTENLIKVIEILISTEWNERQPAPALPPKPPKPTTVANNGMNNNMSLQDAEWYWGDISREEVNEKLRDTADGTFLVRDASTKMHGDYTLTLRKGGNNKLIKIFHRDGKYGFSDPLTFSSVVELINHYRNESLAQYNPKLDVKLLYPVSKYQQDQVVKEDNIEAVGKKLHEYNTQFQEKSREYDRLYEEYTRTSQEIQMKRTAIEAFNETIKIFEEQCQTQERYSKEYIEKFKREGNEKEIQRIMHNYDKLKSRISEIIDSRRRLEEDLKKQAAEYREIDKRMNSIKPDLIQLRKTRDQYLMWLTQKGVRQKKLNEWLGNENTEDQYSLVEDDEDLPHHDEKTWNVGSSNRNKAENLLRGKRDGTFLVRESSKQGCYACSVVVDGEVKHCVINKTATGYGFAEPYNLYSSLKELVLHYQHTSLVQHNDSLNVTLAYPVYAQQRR

Consider `Cc1cc2ncnn2cc1Nc1ncc2c(n1)n(C13CCC(O)(CC1)C3)c(=O)n2C` [Compound 1, 9-(4-hydroxybicyclo[2.2.1]heptan-1-yl)-7-methyl-2-((7-methyl-[1,2,4]triazolo[1,5-a]pyridin-6-yl)amino)-7,9-dihydro-8H-purin-8-one], for which the IC50 on DNA-PK (class symbol) is less than 1 nM; at DNA-PK (setting [3]), 0.07 nM; in experiment [1] (class symbol), no less than 1000 nM; in experiment [1] (numeric value), 1830 nM; against PI3Kβ (class symbol), 100 to 1000 nM; at PI3Kβ (numeric value), 658 nM. The IC50 in experiment [2] (class symbol) is 100 to 1000 nM; in experiment [2] (numeric value) it was 128 nM; against ATM (class symbol), 10 to 100 nM; on ATM (setting [4]), 88 nM.
Regarding `COC12CCC(N3CC(=O)N(C)c4cnc(Nc5cc6nsnc6cc5C)nc43)(CC1)C2` [Compound 64, 8-(4-methoxybicyclo[2.2.1]heptan-1-yl)-5-methyl-2-((6-methylbenzo[c][1,2,5]thiadiazol-5-yl)amino)-7,8-dihydropteridin-6(5H)-one], the IC50 at DNA-PK (setting [5]) was less than 1 nM; in experiment [1] (class symbol), 100 to 1000 nM; in experiment [2] (class symbol), 10 to 100 nM; at ATM (class symbol), 1 to 10 nM.
In the case of `COC12CCC(N3CC(=O)N(C)c4cnc(Nc5cc6cccnc6cc5C)nc43)(CC1)C2` [Compound 65, 8-(4-methoxybicyclo[2.2.1]heptan-1-yl)-5-methyl-2-((7-methylquinolin-6-yl)amino)-7,8-dihydropteridin-6(5H)-one], the IC50 is less than 1 nM on DNA-PK (setting [5]), 100 to 1000 nM in experiment [1] (class symbol), 10 to 100 nM in experiment [2] (class symbol) and 1 to 10 nM at ATM (class symbol).
For `Cc1cc2ncnn2cc1Nc1ncc2c(n1)N(C13CCC(O)(CC1)C3)C(=O)C21CC1` [Compound 66, 7′-(4-hydroxybicyclo[2.2.1]heptan-1-yl)-2′-((7-methyl-[1,2,4]triazolo[1,5-a]pyridin-6-yl)amino)spiro[cyclopropane-1,5′-pyrrolo[2,3-d]pyrimidin]-6′(7′H)-one], the IC50 on DNA-PK (setting [5]) is less than 1 nM; in experiment [1] (class symbol), 100 to 1000 nM; in experiment [2] (class symbol) it was 10 to 100 nM; on ATM (class symbol), 100 to 1000 nM.
For `Cc1cc2nccnc2cc1Nc1ncc2c(n1)N(C13CCC(O)(CC1)C3)C(=O)C21CC1` [Compound 67, 7′-(4-hydroxybicyclo[2.2.1]heptan-1-yl)-2′-((7-methylquinoxalin-6-yl)amino)spiro[cyclopropane-1,5′-pyrrolo[2,3-d]pyrimidin]-6′(7′H)-one], the IC50 at DNA-PK (setting [5]) was less than 1 nM; in experiment [1] (class symbol) it was 100 to 1000 nM; in experiment [2] (class symbol), 10 to 100 nM; against ATM (class symbol) it was 100 to 1000 nM.
As for `Cc1cc2c(cc1Nc1ncc3c(n1)N(C14CCC(O)(CC1)C4)C(=O)C31CC1)OCO2` [Compound 68, 7′-(4-hydroxybicyclo[2.2.1]heptan-1-yl)-2′-((6-methylbenzo[d][1,3]dioxol-5-yl)amino)spiro[cyclopropane-1,5′-pyrrolo[2,3-d]pyrimidin]-6′(7′H)-one], the IC50 at DNA-PK (setting [5]) is less than 1 nM; in experiment [1] (class symbol), 100 to 1000 nM; in experiment [2] (class symbol), 100 to 1000 nM; on ATM (setting [6]), no less than 1000 nM.
Turning to `Cc1cc2ncnn2cc1Nc1ncc2c(n1)N(C13CC(F)(C1)C3)C(=O)C21CC1` [Compound 70, 7′-(3-fluorobicyclo[1.1.1]pentan-1-yl)-2′-((7-methyl-[1,2,4]triazolo[1,5-a]pyridin-6-yl)amino)spiro[cyclopropane-1,5′-pyrrolo[2,3-d]pyrimidin]-6′(7′H)-one], the IC50 on DNA-PK (setting [5]) was less than 1 nM; in experiment [1] (class symbol), no less than 1000 nM; in experiment [2] (class symbol), no less than 1000 nM; on ATM (class symbol), 100 to 1000 nM.
On to `Cc1cc2ncccc2cc1Nc1ncc2c(n1)N(C13CC(F)(C1)C3)C(=O)C21CC1` [Compound 71, 7′-(3-fluorobicyclo[1.1.1]pentan-1-yl)-2′-((7-methylquinolin-6-yl)amino)spiro[cyclopropane-1,5′-pyrrolo[2,3-d]pyrimidin]-6′(7′H)-one], for which the IC50 was less than 1 nM on DNA-PK (setting [5]), no less than 1000 nM in experiment [1] (class symbol), 100 to 1000 nM in experiment [2] (class symbol) and 100 to 1000 nM against ATM (class symbol).
Turning to `Cc1cc2nccnc2cc1Nc1ncc2c(n1)N(C13CC(F)(C1)C3)C(=O)C21CC1` [Compound 72, 7′-(3-fluorobicyclo[1.1.1]pentan-1-yl)-2′-((7-methylquinoxalin-6-yl)amino)spiro[cyclopropane-1,5′-pyrrolo[2,3-d]pyrimidin]-6′(7′H)-one], the IC50 was less than 1 nM on DNA-PK (setting [5]), no less than 1000 nM in experiment [1] (class symbol), 100 to 1000 nM in experiment [2] (class symbol) and 100 to 1000 nM against ATM (class symbol).
With `Cc1cc2nsnc2cc1Nc1ncc2c(n1)N(C13CC(F)(C1)C3)C(=O)C21CC1` [Compound 73, 7′-(3-fluorobicyclo[1.1.1]pentan-1-yl)-2′-((6-methylbenzo[c][1,2,5]thiadiazol-5-yl)amino)spiro[cyclopropane-1,5′-pyrrolo[2,3-d]pyrimidin]-6′(7′H)-one], the IC50 at DNA-PK (setting [5]) is less than 1 nM; in experiment [1] (class symbol) it was no less than 1000 nM; in experiment [2] (class symbol), 100 to 1000 nM; on ATM (setting [6]) it was no less than 1000 nM.
Take `Cc1cc(-c2cnco2)ncc1Nc1ncc2c(n1)N(C13CC(F)(C1)C3)C(=O)C21CC1` [Compound 74, 7′-(3-fluorobicyclo[1.1.1]pentan-1-yl)-2′-((4-methyl-6-(oxazol-5-yl)pyridin-3-yl)amino)spiro[cyclopropane-1,5′-pyrrolo[2,3-d]pyrimidin]-6′(7′H)-one]: the IC50 at DNA-PK (class symbol) was 1 to 10 nM; in experiment [1] (class symbol) it was no less than 1000 nM; in experiment [2] (class symbol) it was 100 to 1000 nM; against ATM (class symbol), 10 to 100 nM.
`Cc1cc(-c2cnn(C)c2)ncc1Nc1ncc2c(n1)N(C13CC(F)(C1)C3)C(=O)C21CC1` [Compound 75, 7′-(3-fluorobicyclo[1.1.1]pentan-1-yl)-2′-((4-methyl-6-(1-methyl-1H-pyrazol-4-yl)pyridin-3-yl)amino)spiro[cyclopropane-1,5′-pyrrolo[2,3-d]pyrimidin]-6′(7′H)-one]: the IC50 against DNA-PK (class symbol) was 1 to 10 nM; in experiment [1] (class symbol) it was no less than 1000 nM; in experiment [2] (class symbol) it was 100 to 1000 nM; against ATM (class symbol), 10 to 100 nM.
Turning to `Cc1cc2c(cc1Nc1ncc3c(n1)N(C14CC(F)(C1)C4)C(=O)C31CC1)OCO2` [Compound 76, 7′-(3-fluorobicyclo[1.1.1]pentan-1-yl)-2′-((6-methylbenzo[d][1,3]dioxol-5-yl)amino)spiro[cyclopropane-1,5′-pyrrolo[2,3-d]pyrimidin]-6′(7′H)-one], the IC50 against DNA-PK (class symbol) was 1 to 10 nM; in experiment [1] (class symbol), no less than 1000 nM; in experiment [2] (class symbol), no less than 1000 nM; at ATM (setting [6]), no less than 1000 nM.
Regarding `[2H]C([2H])([2H])n1c(=O)n(C23CCC(O)(CC2)C3)c2nc(Nc3cn4ncnc4cc3C)ncc21` [Compound 77, 9-(4-hydroxybicyclo[2.2.1]heptan-1-yl)-7-(methyl-d3)-2-((7-methyl-[1,2,4]triazolo[1,5-a]pyridin-6-yl)amino)-7,9-dihydro-8H-purin-8-one], the IC50 at DNA-PK (setting [5]) was less than 1 nM; in experiment [1] (class symbol), 100 to 1000 nM; in experiment [2] (class symbol), 100 to 1000 nM; on ATM (class symbol), 10 to 100 nM.
With `Cc1cc2ncnn2cc1Nc1ncc2c(n1)n(C13CCC(O)(CC1)CC3)c(=O)n2C` [Compound 78, 9-(4-hydroxybicyclo[2.2.2]octan-1-yl)-7-methyl-2-((7-methyl-[1,2,4]triazolo[1,5-a]pyridin-6-yl)amino)-7,9-dihydro-8H-purin-8-one], the IC50 on DNA-PK (class symbol) is less than 1 nM; on DNA-PK (setting [3]), 0.71 nM; in experiment [1] (class symbol) it was 100 to 1000 nM; in experiment [1] (numeric value), 214 nM; in experiment [2] (class symbol), 100 to 1000 nM; in experiment [2] (numeric value), 152 nM. Besides, the IC50 on ATM (class symbol) was 10 to 100 nM; on ATM (setting [4]), 36 nM.
